Laboratory results: patent publication US8017782B2, “4-phenyl-5-oxo-1,4,5,6,7,8-hexahydroquinoline derivatives as medicaments for the treatment of infertility” (N.V. Organon, priority 2005, dated 2011)

Each molecule was assayed against T1, human FSH receptor (Homo sapiens, UniProt P23945) (assay: Agonistic activity at the human FSH receptor expressed in CHO cells (CRE-luciferase reporter)). Details: CHO cells stably transfected with human FSH receptor and CRE/luciferase reporter; tested 0.1 nM to 10 μM; read-out: EC50 (concentration of test compound causing half-maximal (50%) luciferase stimulation).
T1 construct: expressed in transfected cells; host or cells: Chinese Hamster Ovary (CHO) cells
T1 sequence (P23945 18-695): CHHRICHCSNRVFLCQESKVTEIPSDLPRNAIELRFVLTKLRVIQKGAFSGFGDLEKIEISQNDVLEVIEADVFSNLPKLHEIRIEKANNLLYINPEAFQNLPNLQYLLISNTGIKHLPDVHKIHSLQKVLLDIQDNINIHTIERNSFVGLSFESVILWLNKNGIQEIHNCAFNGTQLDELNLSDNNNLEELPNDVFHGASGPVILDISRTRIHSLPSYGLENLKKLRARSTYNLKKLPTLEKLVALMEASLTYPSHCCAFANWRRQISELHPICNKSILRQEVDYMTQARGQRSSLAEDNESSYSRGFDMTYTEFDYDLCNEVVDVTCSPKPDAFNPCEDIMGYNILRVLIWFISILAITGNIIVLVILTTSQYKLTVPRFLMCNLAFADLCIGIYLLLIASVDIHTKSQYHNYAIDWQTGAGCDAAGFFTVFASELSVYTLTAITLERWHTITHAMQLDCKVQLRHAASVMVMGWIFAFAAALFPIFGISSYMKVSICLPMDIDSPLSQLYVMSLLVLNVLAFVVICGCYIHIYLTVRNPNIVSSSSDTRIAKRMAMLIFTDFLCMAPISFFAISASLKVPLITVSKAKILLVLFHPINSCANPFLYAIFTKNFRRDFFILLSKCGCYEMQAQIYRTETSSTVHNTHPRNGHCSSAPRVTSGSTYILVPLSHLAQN
Format: cell-based
Experimental: Agonistic Activity of Compounds at the Human FSH Receptor Expressed in CHO Cells
Agonist activity of the compounds at the human FSH receptor was tested in Chinese Hamster Ovary (CHO) cells stably transfected with the human FSH receptor and cotransfected with a cAMP responsive element (CRE)/promotor directing the expression of a firefly luciferase reporter gene. Binding of the compound to the Gs-coupled FSH receptor will result in an increase of cAMP, which in turn will induce an increased transactivation of the luciferase reporter construct. The luciferase activity was quantified using a luminescence counter. The compounds were tested in the concentration range of 0.1 nM to 10 μM. This assay was used to determine the EC50 (concentration of test compound causing half-maximal (50%) luciferase stimulation) and efficacy of the compounds compared to recombinant human FSH. For this, the software program XLfit (Excel version 2.0, built 30, ID Business Solutions Limited) was used.

EC50, < 10 nM:
CCCC1CC(=O)C2=C(C1)NC(C)=C(C#N)C2c1cc(Br)c(OCC=CC(=O)NCc2ccccn2)c(OCC)c1 (centres unmarked) [Example 12, 4-[2-Bromo-4-(3-cyano-2-methyl-5-oxo-7-propyl-1,4,5,6,7,8-hexahydro-quinolin-4-yl)-6-ethoxy-phenoxy]-but-2-enoic acid (pyridin-2-ylmethyl)-amide]
CCCC1CC(=O)C2=C(C1)NC(C)=C(C#N)C2c1cc(Br)c(OCCOCCNC(=O)C2CC2)c(OCC)c1 (centres unmarked) [Example 22, Cyclopropanecarboxylic acid (2-{2-[2-bromo-4-(3-cyano-2-methyl-5-oxo-7-propyl-1,4,5,6,7,8-hexahydro-quinolin-4-yl)-6-ethoxy-phenoxy]-ethoxy}-ethyl)-amide]
CCCC1CC(=O)C2=C(C1)NC(C)=C(C#N)C2c1cc(Br)c(OCC=CCNC(=O)C2CC2)c(OCC)c1 (centres unmarked) [Example 3, Cyclopropanecarboxylic acid {4-[2-bromo-4-(3-cyano-2-methyl-5-oxo-7-propyl-1,4,5,6,7,8-hexahydro-quinolin-4-yl)-6-ethoxy-phenoxy]-but-2-enyl}-amide]
CCCC1CC(=O)C2=C(C1)NC(C)=C(C#N)C2c1cc(Br)c(OCCOC)c(S(=O)(=O)N(C)C)c1 (centres unmarked) [Example 29, 3-Bromo-5-(3-cyano-2-methyl-5-oxo-7-propyl-1,4,5,6,7,8-hexahydro-quinolin-4-yl)-2-(2-methoxy-ethoxy)-N,N-dimethyl-benzenesulfonamide]
CCCC1CC(=O)C2=C(C1)NC(C)=C(C#N)C2c1cc(Br)c(NCCOC)c(S(=O)(=O)N2CCCC2)c1 (centres unmarked) [Example 32, 4-[3-Bromo-4-(2-methoxy-ethylamino)-5-(pyrrolidine-1-sulfonyl)-phenyl]-2-methyl-5-oxo-7-propyl-1,4,5,6,7,8-hexahydro-quinoline-3-carbonitrile]
CCCC1CC(=O)C2=C(C1)NC(C)=C(C#N)C2c1cc(Br)c(NCCOC)c(S(=O)(=O)N2CCOCC2)c1 (centres unmarked) [Example 31, 4-[3-Bromo-4-(2-methoxy-ethylamino)-5-(morpholine-4-sulfonyl)-phenyl]-2-methyl-5-oxo-7-propyl-1,4,5,6,7,8-hexahydro-quinoline-3-carbonitrile]
CCCC1CC(=O)C2=C(C1)NC(C)=C(C#N)C2c1cc(Br)c(OCCOCCO)c(S(=O)(=O)N(C)C)c1 (centres unmarked) [Example 23, 3-Bromo-5-(3-cyano-2-methyl-5-oxo-7-propyl-1,4,5,6,7,8-hexahydro-quinolin-4-yl)-2-[2-(2-hydroxy-ethoxy)-ethoxy]-N,N-dimethyl-benzenesulfonamide]
CCCC1CC(=O)C2=C(C1)NC(C)=C(C#N)C2c1cc(Br)c(OCCCCNC(=O)C(C)C)c(OCC)c1 (centres unmarked) [Example 13, N-{4-[2-Bromo-4-(3-cyano-2-methyl-5-oxo-7-propyl-1,4,5,6,7,8-hexahydro-quinolin-4-yl)-6-ethoxy-phenoxy]-butyl}-isobutyramide]
CCCC1CC(=O)C2=C(C1)NC(C)=C(C#N)C2c1cc(Br)c(OCC=CCNC(=O)COC)c(OCC)c1 (centres unmarked) [Example 5, N-{4-[2-Bromo-4-(3-cyano-2-methyl-5-oxo-7-propyl-1,4,5,6,7,8-hexahydro-quinolin-4-yl)-6-ethoxy-phenoxy]-but-2-enyl}-2-methoxy-acetamide]
CCCC1CC(=O)C2=C(C1)NC(C)=C(C#N)C2c1cc(Br)c(OCC=CCNC(=O)C(C)C)c(OCC)c1 (centres unmarked) [Example 2, N-{4-[2-Bromo-4-(3-cyano-2-methyl-5-oxo-7-propyl-1,4,5,6,7,8-hexahydro-quinolin-4-yl)-6-ethoxy-phenoxy]-but-2-enyl}-isobutyramide]
CCCC1CC(=O)C2=C(C1)NC(C)=C(C#N)C2c1cc(Br)c(OCC=CCNC(=O)OCC)c(OCC)c1 (centres unmarked) [Example 6, {4-[2-Bromo-4-(3-cyano-2-methyl-5-oxo-7-propyl-1,4,5,6,7,8-hexahydro-quinolin-4-yl)-6-ethoxy-phenoxy]-but-2-enyl}-carbamic acid ethyl ester]
CCCC1CC(=O)C2=C(C1)NC(C)=C(C#N)C2c1cc(Br)c(OCCO)c(S(=O)(=O)N(C)C)c1 (centres unmarked) [Example 26, 3-Bromo-5-(3-cyano-2-methyl-5-oxo-7-propyl-1,4,5,6,7,8-hexahydro-quinolin-4-yl)-2-(2-hydroxy-ethoxy)-N,N-dimethyl-benzenesulfonamide]
CCCC1CC(=O)C2=C(C1)NC(C)=C(C#N)C2c1cc(Br)c(OCCCCCNC(=O)COC)c(OCC)c1 (centres unmarked) [Example 17, N-{5-[2-Bromo-4-(3-cyano-2-methyl-5-oxo-7-propyl-1,4,5,6,7,8-hexahydro-quinolin-4-yl)-6-ethoxy-phenoxy]-pentyl}-2-methoxy-acetamide]
CCCC1CC(=O)C2=C(C1)NC(C)=C(C#N)C2c1cc(Br)c(OCC=CCO)c(OCC)c1 (centres unmarked) [Example 28, 4-[3-Bromo-5-ethoxy-4-(4-hydroxy-but-2-enyloxy)-phenyl]-2-methyl-5-oxo-7-propyl-1,4,5,6,7,8-hexahydro-quinoline-3-carbonitrile]
CCCC1CC(=O)C2=C(C1)NC(C)=C(C#N)C2c1cc(Br)c(OCCCCCCNS(=O)(=O)C(C)C)c(OCC)c1 (centres unmarked) [Example 20, Propane-2-sulfonic acid {6-[2-bromo-4-(3-cyano-2-methyl-5-oxo-7-propyl-1,4,5,6,7,8-hexahydro-quinolin-4-yl)-6-ethoxy-phenoxy]-hexyl}-amide]
CCCC1CC(=O)C2=C(C1)NC(C)=C(C#N)C2c1cc(Br)c(OCCOCCOC)c(S(=O)(=O)N(C)C)c1 (centres unmarked) [Example 30, 3-Bromo-5-(3-cyano-2-methyl-5-oxo-7-propyl-1,4,5,6,7,8-hexahydro-quinolin-4-yl)-2-[2-(2-methoxy-ethoxy)-ethoxy]-N,N-dimethyl-benzenesulfonamide]
CCCC1CC(=O)C2=C(C1)NC(C)=C(C#N)C2c1cc(Br)c(OCCOCCO)c(OC(C)C)c1 (centres unmarked) [Example 24, 4-{3-Bromo-4-[2-(2-hydroxy-ethoxy)-ethoxy]-5-isopropoxy-phenyl}-2-methyl-5-oxo-7-propyl-1,4,5,6,7,8-hexahydro-quinoline-3-carbonitrile]
